The results in this text go back to patent US11325937B2, “Glycoside compound and preparation method therefor, composition, application, and intermediate” (SHANGHAI HUTCHISON PHARMACEUTICALS LIMITED, priority 2018, dated 2022).

For experiment [1], the system named is rats with middle cerebral artery occlusion (MCAO). Kind of experiment: Acute cerebral infarction model in rats with middle cerebral artery occlusion (MCAO). The format is in vivo, male SD rats. The conditions noted are these: MCAO; for ED50: Rattus norvegicus, ip, 72 h, intraperitoneal injection, TTC staining after 3 days, read-out: ED50 for infarction inhibition rate (%). An excerpt:
(§1) After obtaining the active molecules that can promote the expression of VEGF-A mRNA in the animal model of inflammatory angiogenesis, a rat model of cerebral infarction was used for further verification. Following the method as described in Longa, E. Z., Longa, E. Z., Weinstein, P. R., Carlson, S. & Commin, R. Reversible middle cerebral artery occlusion without craniectomy in rats. [J]. Stroke, 1989. 1: 84-91, an acute cerebral infarction model was established in rats with middle cerebral artery occlusion (MCAO); and following the method as described in C. dela Torre, T. Fortin, G. A. S. Park, K. S. Butler, P. Kozlowski, B. A. Pappas, H. de Socarraz, J. K. Saunders and M. T. Richard. [J]. Brain Research, 1992. 582:186-195, a chronic cerebral ischemia model was established in rats with permanent ligation of bilateral common carotid arteries (2VO). The inhibition on cerebral infarction and neuroprotection for brain injury of the active molecules screened in Effect Example 2 were verified.
The control drugs were: Edaravone (purchased from Zhejiang Shengtong Biotechnology Co., Ltd.), Clopidogrel bisulfate (purchased from Wuhan Yuancheng Gongchuang Technology Co., Ltd.), and Salvianolate (purchased from Henan Provincial People's Hospital). Clopidogrel bisulfate is a platelet aggregation inhibitor, and Edaravone is a brain protectant (free radical scavenger). The MCAO model of rats was made by the thread occlusion method. The rats used in this effect example were male SD rats weighing 280-320 grams, purchased from Shanghai SLAC Laboratory Animal Co., Ltd. Five SD (Sprague Dawley) rats in each group were administered by intraperitoneal injection, 2 h before surgery, and every 24 h after modeling.
Three days later, the brain was taken, and the rat brain was stained with TTC (2,3,5-triphenyltetrazolium chloride, to detect the cell viability) and then photographed. Infarction rate (%)=(Non-infarction area of right brain section−non-infarction area of left brain section)/total area of brain section*100%. According to t tests, *P<0.05, **P<0.01, ***P<0.001 compared with the model group (MCAO). Infarction inhibition rate (%) at different doses=(infarction rate of model group-infarction rate of treatment group)/infarction rate of model group*100%. The infarction inhibition rate at different doses was plotted, and the ED50 of the drug was calculated.
Moreover, the body weight of the rats was recorded. The rate of body weight change was calculated according to a formula: Rate of body weight change (%)=(final weight-initial weight)/[…].
Three days after the acute cerebral infarction model was established in rats with MCAO, the test rats were scored for neurological function according to the Longa nerve scoring standard.
Three days after the acute cerebral infarction model of MCAO was established in rats, the intact brain tissue was taken out, olfactory bulb and the brain tissue that is 4 mm in front of the frontal pole was removed, and the immediately adjacent brain tissue of 2 mm thick was taken for water content measurement in the brain. The water content in brain tissue is calculated by the formula: (WW−DW)/WW×100%, where WW is the wet weight and DW is the dry weight. Three days after the acute cerebral infarction model of MCAO was established in rats, the brain tissue was stained with Evans Blue (EB, a commonly used azo dye preparation) to evaluate the permeability across the blood-brain barrier (BBB), so as to evaluate the integrity of blood-brain barrier. Both experiments were tested with the optimal dose of each drug previously determined: TG-028 (5 mg/Kg), Salvianolate (20 mg/Kg), Clopidogrel bisulfate (40 mg/Kg), Edaravone (40 mg/Kg).

Experiment [2] has as its system rats with permanent ligation of bilateral common carotid arteries (2VO). Briefly: Chronic cerebral ischemia model in rats with permanent ligation of bilateral common carotid arteries (2VO). The class given is in vivo.
Description: as §1
In the later period of the present invention, a chronic cerebral ischemia model was established in rats with permanent ligation of bilateral common carotid arteries (2VO). TG-028 (5 mg/kg) was administered to 5 rats in each group daily by intraperitoneal injection for 3 weeks. The effects of TG-028 and the control drug Edaravone (40 mg/kg) in the rat model of chronic cerebral ischemia were observed.
3 weeks after the establishment of the rat model of 2VO chronic cerebral ischemia, the Morris water maze experiment was performed on the test rats to determine the effects of drugs on animal learning and memory. The test rats were subjected to ambient positioning and memory training for 5 days. On Day 5 of the training, a positioning navigation experiment was carried out, and the duration for each group of rats from the time of entering the water from different water entry points facing the pool wall to the time of finding the platform, that is, the escape incubation period, was recorded. On Day 6, the platform was removed and a space exploration experiment was carried out. The swimming time of the rats in the target quadrant, the dwell time in the target quadrant, the distance in the target quadrant, and the number of passes through the platform were recorded in 120 s from the time of entering water from a quadrant opposing the target quadrant. The results of the water maze positioning and navigation experiment are shown in FIG. 8 (where Sham is a sham operation group).
After permanent ligation of the bilateral common carotid arteries, a 5-day positioning training was carried out, and […] Morris water maze space exploration experiment was performed after the training.

The test system of experiment [3] is VEGF-A mRNA expression in macrophages (RAW264.7). Briefly: In vitro macrophage experiment: activity of compounds to promote VEGF-A mRNA expression (RT-qPCR). The format is cell-based. The conditions noted are these: Mus musculus, RAW264.7 macrophages, 3 h, relative expression, no drug = 1, read-out: Expression level of VEGF-A mRNA; for fold induction at 500 µM: 0.5 mM; for fold induction at 1000 µM: 1 mM; for fold induction at 2000 µM: 2 mM; for fold induction at 3000 µM: 3 mM; for fold induction at 4000 µM: 4 mM. An outline of the steps: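 RAW264.7 macrophages were exposed to test compounds at various concentrations for 3 h at 37° C. VEGF-A mRNA was measured by SYBR Green RT-qPCR, normalized to β-Actin, and expressed as 2^−ΔΔCt relative to untreated cells (=1). Activity is the maximal fold induction, with ≥4 as hit criterion.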
(In general: Quantitative PCR measures a nucleic acid by following its amplification.)

The subject of experiment [4] is VEGF-A mRNA. Kind of experiment: Sponge implanted animal model of inflammatory angiogenesis: VEGF-A mRNA expression. The format is in vivo, male C57/BL6 mice. The conditions noted are these: for activity in promoting VEGF-A mRNA expression compared with Salvianolate (in words): positive control Salvianolate 60 mg/kg/d, sponge implanted mice. The text has this: The target pro-angiogenic compounds TG-052, TG-053, TG-054, TG-028, and TG-055 obtained in Effect Example 1 that perform well at the cellular level were further screened for the active molecules that promote VEGF-A mRNA expression in the “sponge implanted animal model” of inflammatory angiogenesis. […] This model can well reflect the expression of VEGF-A mRNA in macrophages recruited around inflammation.
A sponge implanted mouse model was established following the method as described in Zhang J, Modi Y, and Yarovinsky T, et al. Macrophage β2 integrin-mediated, HuR-dependent stabilization of angiogenic factor-encoding mRNAs in inflammatory angiogenesis. [J]. American Journal of Pathology, 2012. 180(4): 1751-1760. The mice used in the present invention was male C57/BL6 mice aged 6-8 weeks and weighing 20-25 g, purchased from Shanghai SLAC Laboratory Animal Co., Ltd, Production License No: SCXK (Shanghai) 2013-0016. The compound screened in Effect Example 1 was weighed according to the amount intended to be used in two weeks, and then mixed with a gel matrix and a solvent to prepare a sustained-release gel of the compound (see Patent Application No.: CN201610168493.9 for the details of the preparation method of the sustained-release gel and the model establishment and detection methods). The specific steps were as follows. A certain amount of the compound obtained in Effect Example 1 was weighed into a 1.5 mL EP tube, and then a certain amount of poly-L-lactic acid (PLLA) with a weight average molecular weight of less than 10,000 was weighed and mixed with the compound (at a weight ratio of the compound to PLLA of 0.5:1 to 2:1). Finally a certain amount of DMSO (less than 100 microliters) was added, spun, mixed well, and then sealed with a sealing film. After continuous ultrasonication at 200 W and 25° C. for 5 h, a sustained-release gel of the compound was obtained, which was stored at 4° C. for later use.
The prepared sustained-release gel can release the drug completely within 2 weeks. The sustained-release gel and sponge were both subcutaneously implanted in the mice at the back. After 2 weeks, the sponge was taken out, and the residual tissue and fur were removed. The sponge was transferred to a cell culture plate containing 10 mL of DMEM medium containing collagenase (Collagenase:DMEM=10 mg/10 mL), cut, and incubated for 1 h in a cell incubator. Then the culture medium containing sponge debris was filtered, and the resulting filtrate was centrifuged. The supernatant was discarded, and 500 μL of Trizol reagent was added to the pellet, and mixed uniformly by blowing. Then the liquid was transferred to a 1.5 mL EP tube, and stored at −80° C. RNA was extracted according to a conventional method, and the RNA concentration was determined using a microvolume nucleic acid and protein analyzer (Nanodrop2000c). The required volume V of RNA was calculated according to the RNA concentration, and the RNA reverse transcription reaction system was prepared according to Table 1. Then RNA reverse transcription (cDNA synthesis) was carried out according to the conditions described in Table 2. The resulting cDNA was used to prepare a fluorescence quantitative qPCR reaction solution according to Table 3. The fluorescence quantitative qPCR reaction conditions were set according to Table 4, and the fluorescence quantitative PCR reaction was performed using cDNA from the reverse transcription reaction as a template. The relative expression level 2^−ΔΔCt of the target gene was calculated from the Ct value of each sample with the blank group as a control and β-Actin as an internal reference. The expression level of VEGF-A mRNA in the cells extracted from the sponge was observed after 2 weeks. […]

SMILES strings stand for the structures.

Broadly, the ED50 is the dose that gives a 50% effect, or the effect in half of the subjects. For the compound `COC(=O)[C@H](c1ccccc1Cl)N1CCc2sccc2C1` [Clopidogrel bisulfate, reference compound], the ED50 in experiment [1] amounted to 28.1 mg/kg.
With `CC1=NN(c2ccccc2)C(=O)C1` [Edaravone, reference compound], the “HE staining and Nissl staining of brain sections, hippocampal CA3 neurons (in words)” value in experiment [2] (3 weeks after chronic cerebral ischemia, compared with 2VO+NaCl, FIG. 10) is given as “cell morphology in the 2VO+Edaravone group is also improved”. In addition, the “Morris water maze positioning and navigation: escape incubation period and total distance (in words)” value in experiment [2] (TG-028 5 mg/kg, Edaravone 40 mg/kg, 3 weeks of administration, FIG. 8) is recorded as “different from those of the 2VO+NaCl group”. In experiment [2] (TG-028 5 mg/kg, Edaravone 40 mg/kg, 3 weeks, FIG. 9), the “Morris water maze space exploration: number of passes through the platform compared with 2VO+NaCl group” value is given as “no significant difference”. The “change in body weight compared with sham operation group (in words)” value in experiment [2] (TG-028 5 mg/kg, Edaravone 40 mg/kg, i.p. daily, after 1 week, FIG. 7) was “no significant weight increase compared with the sham operation group”. Also, the ED50 in experiment [1] came out at 25.7 mg/kg.
In the case of `COc1ccc(CO[C@@H]2O[C@H](CO)[C@@H](O)[C@H](O)[C@H]2O)cc1` [TG-052], in experiment [3], the fold induction at 500 µM was found to be 19.7, the fold induction at 1000 µM amounted to 0.93, the fold induction at 2000 µM stood at 2.64 and the fold induction at 3000 µM amounted to 2.69. For the same compound, the fold induction at 4000 µM in experiment [3] was 3.51. Further, in experiment [4] (41.37 mg/kg/d, sustained-release gel, 2 weeks, mice), the “increase of expression level of VEGF-A mRNA compared with blank control without drugs” value is on record as “about 3 times”. For the same compound, the “activity in promoting VEGF-A mRNA expression compared with Salvianolate (in words)” value (“activity … compared with Salvianolate (in words)” for short) in experiment [4] (2 weeks) was “comparable to that of Salvianolate”.
Consider `COc1ccc(CCO[C@@H]2O[C@H](CO)[C@@H](O)[C@H](O)[C@H]2O)cc1` [TG-053], for which, in experiment [3], the fold induction at 500 µM turned out to be 11.2, the fold induction at 1000 µM amounted to 13.4, the fold induction at 2000 µM turned out to be 6.82 and the fold induction at 3000 µM is 1.32. For the same compound, in experiment [3], the fold induction at 4000 µM was 1.8. For the same compound, in experiment [4] (2 weeks), the “activity … compared with Salvianolate (in words)” value is reported as “slightly lower activity in promoting the VEGF-A mRNA expression”.
Turning to `COc1ccc(CCCO[C@@H]2O[C@H](CO)[C@@H](O)[C@H](O)[C@H]2O)cc1` [TG-054], in experiment [3], the fold induction at 500 µM was 3.63, the fold induction at 1000 µM came out at 12.4, the fold induction at 2000 µM came out at 6.5 and the fold induction at 3000 µM stood at 1.21. For the same compound, the fold induction at 4000 µM in experiment [3] amounted to 2.01. For the same compound, the “activity … compared with Salvianolate (in words)” value in experiment [4] (2 weeks) is “slightly lower activity in promoting the VEGF-A mRNA expression”.
`OC[C@H]1O[C@@H](OCCc2ccc(O)cc2)[C@H](O)[C@@H](O)[C@@H]1O` [TG-056, salidroside, reference compound]: in experiment [3] (0.1 mM), the fold induction at 100 µM came out at 0.72. In experiment [3], the fold induction at 500 µM was 1.74, the fold induction at 1000 µM worked out at 2.24, the fold induction at 2000 µM was 6.7 and the fold induction at 3000 µM is 2.31. For the same compound, in experiment [4] (various doses, alone, FIG. 19), the “expression of VEGF-A mRNA (in words)” value is given as “very low expression of VEGF-A mRNA”.
Turning to `COc1cc(CCCCO[C@@H]2O[C@H](CO)[C@@H](O)[C@H](O)[C@H]2O)ccc1O` [TG-057], in experiment [1] (5 mg/kg, FIG. 20), the “Longa nerve scoring, protective effect on nerves (in words)” value was “has a protective effect on nerves in rats after brain injury, but the effect is not as strong as that of TG-028” and the “effect of inhibiting cerebral infarction (in words)” value is listed as “has the effect of inhibiting cerebral infarction in the rats”.
